Measurements from ChEMBL document CHEMBL1124017, “Synthesis, absolute configuration, and molecular modeling study of etoxadrol, a potent phencyclidine-like agonist” (J Med Chem, 1988).

What was measured:
Glutamate NMDA receptor = experiment: Displacement of [3H]TCP from tissue homogenate preparation of whole rat brain minus cerebellum; format: tissue-based
Rattus norvegicus = species on record: Rattus norvegicus; experiment: Behavioral potency by which rat discriminate phencyclidine from saline in a 2 lever drug discrimination procedure; format: functional

| Structure (SMILES) | Ki (Glutamate NMDA receptor) [µM] | ED50 (Rattus norvegicus) [µM] |
| --- | --- | --- |
| CC[C@]1(c2ccccc2)OC[C@H]([C@@H]2CCCCN2)O1 [ETOXADROL] | 0.107 | 2.4 |
| CC[C@@]1(c2ccccc2)OC[C@@H]([C@@H]2CCCCN2)O1.CC[C@]1(c2ccccc2)OC[C@@H]([C@@H]2CCCCN2)O1 | 40 | >100 |
| CC[C@@]1(c2ccccc2)OC[C@H]([C@H]2CCCCN2)O1.CC[C@]1(c2ccccc2)OC[C@H]([C@H]2CCCCN2)O1 | 38 | >100 |

More lines, main results first:

| Ki (Glutamate NMDA receptor) [µM] | Structure (SMILES) | ED50 (Rattus norvegicus) [µM] |
| --- | --- | --- |
| 3.7 | CC[C@@]1(c2ccccc2)OC[C@H]([C@@H]2CCCCN2)O1 | – |
| 2.3 | CC[C@@]1(c2ccccc2)OC[C@@H]([C@H]2CCCCN2)O1 | >100 |
